Target: T1, aromatase (cytochrome P450 aromatase) (Homo sapiens, UniProt P11511)
T1 construct: Human placentas were used; from tissue; host or cells: human placenta, microsomes (105,000 g pellet)
T1 sequence (P11511 1-503): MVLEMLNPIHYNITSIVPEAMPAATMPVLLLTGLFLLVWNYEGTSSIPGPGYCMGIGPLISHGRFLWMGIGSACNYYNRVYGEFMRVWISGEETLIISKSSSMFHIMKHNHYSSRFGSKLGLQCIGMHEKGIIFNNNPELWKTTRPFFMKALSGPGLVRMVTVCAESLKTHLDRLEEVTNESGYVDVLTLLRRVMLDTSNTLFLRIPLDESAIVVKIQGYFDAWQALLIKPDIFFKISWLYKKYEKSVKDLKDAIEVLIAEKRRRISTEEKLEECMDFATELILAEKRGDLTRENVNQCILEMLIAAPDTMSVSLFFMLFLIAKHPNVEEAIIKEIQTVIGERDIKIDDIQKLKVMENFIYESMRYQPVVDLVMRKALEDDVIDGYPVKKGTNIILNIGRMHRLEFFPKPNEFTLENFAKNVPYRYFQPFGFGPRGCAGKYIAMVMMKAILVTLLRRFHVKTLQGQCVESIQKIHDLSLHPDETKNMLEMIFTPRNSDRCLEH
Test: Aromatase inhibition in human placental microsomes (tritiated water release from 1-2-(^3H)-androstenedione)
Type: biochemical
Conditions: 25 micrograms protein per test, 60 nM androstene-dione substrate, NADPH, pH 7.2, 37° C., 10 minutes, read-out: IC50 (concentration of inhibitor necessary to decrease by 50% the enzymatic activity)
Experimental: Inhibition dependent on the concentration (measurement of the IC50 =concentration of the inhibitor necessary to reduce the enzymatic activity by 50%). Human placentas were used which one hour or more after birth were washed, perfused with physiological serum (5 liters) via the umbilical vein and then frozen at -40° C.
The placentas were thawed at 4° C., then homogenized (1:3) in a 10 mM phosphate buffer, pH=7.0, containing 100 mM of potassium chloride (KCl), 10 mM of dithiothreitol (DTT), 10 mM of ethylenediaminetetra-aceticacid (EDTA), 40 mM of nicotinamide and 250 mM of sucrose. The homogenates were then subjected to various stages of centrifugation until the "9000 g" supernatant was obtained (corresponding to cytosol and to endoplasmic reticulum). This supernatant was then subjected to an ultracentrifugation stage (90 minutes, 105,000 g) to obtain the microsome deposit. […] The protein concentration of the microsome suspension was determined by the BRADFORD method (BRADFORD, Anal. Biochem., Vol. 72 (1976), p. 248). […]
The enzymatic reaction was then very quickly started by the addition of 10 microliters of reduced nicotinamide adenine dinucleotide phosphate (NADPH) dissolved in water. […] After centrifugation, and for each tube, 100 microliters of supernatant was removed and counted in the presence of scintillating liquid. […]

Row | Structure (SMILES) | IC50
1 | C[C@]12CCC(=O)C(SCF)=C1CC[C@@H]1[C@@H]2CC[C@]2(C)C(=O)CC[C@@H]12 [Example 1, 4-fluoromethylthio-Δ^4-androstene-3,17-dione] | 70 nM
2 | C[C@]12CCC(=O)C(SCCl)=C1CC[C@@H]1[C@@H]2CC[C@]2(C)C(=O)CC[C@@H]12 [Example 2, 4-Chloromethylthio-Δ^4-androstene-3,17-dione] | 75 nM

— US4988684A, “Novel 4-alkylthio-steroids” (Roussel Uclaf, priority 1988, dated 1991)
